# Patent publication US7378232B2 (priority 2002, dated 2008)
# Tested on: wild-type melan-a melanocytes (A) and P-null melanocytes (P)
# Experiment: not given
# Format: cell-based
# Conditions: not given
Compound,TOXIN S[…] CHANGE (as a function of P protein expression),TOXIN S[…] (as a function of P protein expression)
"C=CCC(N)C(=O)O (stereo not shown) [ALLYLGLYCINE, allylglycine]",✓,
"C[C@@H]1[C@H](O)[C@@H](C)/C=C/C=C/C=C/C=C/C=C/C=C/C=C/[C@H](O[C@@H]2O[C@H](C)[C@@H](O)[C@H](N)[C@@H]2O)C[C@@H]2O[C@](O)(C[C@@H](O)C[C@@H](O)[C@H](O)CC[C@@H](O)C[C@@H](O)CC(=O)O[C@H]1C)C[C@H](O)[C@H]2C(=O)O [AMPHOTERICIN, amphotericin]",✓,
"[Sb] [ANTIMONY, antimony]",,✓
"CO/C1=C\C(C)=C\[C@@H](C)[C@@H](O)[C@@H](C)C/C(C)=C/C=C/[C@H](OC)[C@@H]([C@@H](C)[C@@H](O)[C@H](C)[C@@]2(O)C[C@@H](O)[C@H](C)[C@@H](C(C)C)O2)OC1=O [BAFILOMYCIN Al, bafilomycin A1]",,✓
"CCCCS(=N)(=O)CCC(N)C(=O)O (stereo not shown) [BUTHIONINE SULFOXIMINE (BSO), buthionine sulfoximine]",,✓
"[Cd] [CADMIUM, cadmium]",,✓
"CCN(CC)CCCC(C)Nc1ccnc2cc(Cl)ccc12 (stereo not shown) [CHLOROQUINE, chloroquine]",,✓
"N.N.[Cl][Pt][Cl] [CISPLATIN, cisplatin]",,✓
"C[C@@H]1C[C@@H]([C@H](O)CC2CC(=O)NC(=O)C2)C(=O)[C@@H](C)C1 [CYCLOHEXIMIDE, cycloheximide]",,✓
"COc1cccc2c1C(=O)c1c(O)c3c(c(O)c1C2=O)C[C@@](O)(C(=O)CO)C[C@@H]3O[C@H]1C[C@H](N)[C@H](O)[C@H](C)O1 [DOXORUBICIN, doxorubicin]",,✓
"C=C(CC)C(=O)c1ccc(OCC(=O)O)c(Cl)c1Cl [ETHACRYNIC ACID, ethacrynic acid]",,✓
"N#CC(C#N)=NNc1ccc(OC(F)(F)F)cc1 [FCCP, carbonyl cyanide p-trifluoromethoxyphenylhydrazone]",,✓
"O=S(=O)([O-])[O-].[Fe+2] [IRON SULFATE (FESO4), iron sulfate (FeSO4)]",,✓
"CC[C@H]1/C=C/C=C/C[C@@H](C)[C@H](O)[C@@](C)(O)C(=O)[C@@H](C)[C@H](O)[C@@H](C)C(=O)[C@@H](C)[C@H](O)[C@@H](C)/C=C/C(=O)O[C@@H]2[C@H](C)[C@H](CC1)O[C@]1(CC[C@H](C)[C@H](C[C@@H](C)O)O1)[C@H]2C [OLIGOMYCIN, oligomycin]",,✓
"COc1cc(NC(C)CCCN)c2ncccc2c1 (stereo not shown) [PRIMAQUINE, primaquine]",✓,
"O=[Se](=O)(O)O [SELENATE, selenate]",,✓
"CC(C)[C@@H]1NC(=O)[C@H](C)OC(=O)[C@@H](C(C)C)NC(=O)[C@@H](C(C)C)OC(=O)[C@H](C(C)C)NC(=O)[C@H](C)OC(=O)[C@@H](C(C)C)NC(=O)[C@@H](C(C)C)OC(=O)[C@H](C(C)C)NC(=O)[C@H](C)OC(=O)[C@@H](C(C)C)NC(=O)[C@@H](C(C)C)OC1=O [VALINOMYCIN, valinomycin]",,✓
"CC[C@]1(O)C[C@@H]2CN(CCc3c([nH]c4ccccc34)[C@@](C(=O)OC)(c3cc4c(cc3OC)N(C)[C@H]3[C@@](O)(C(=O)OC)[C@H](OC(C)=O)[C@]5(CC)C=CCN6CC[C@]43[C@@H]65)C2)C1 [VINBLASTINE, vinblastine]",,✓
arsenate,,✓
arsenic trioxide,,✓
arsenite,,✓

# Tested on: yeast cells expressing / not expressing the P protein (strain SH3866)
# Experiment: not given
# Format: cell-based
# Conditions: not given
row,Compound,"yeast colony size, P protein-expressing vs non-expressing colonies exposed to the compound"
1,"[Sb] [ANTIMONY, antimony]",do not reach the same size

# Same assay, conditions: 24-well selective medium-agar, 30° C. for 3 days, FIG. 3A
row,Compound,"yeast colony size, P protein-expressing vs non-expressing colonies exposed to the compound"
1,arsenate,do not reach the same size
2,arsenic trioxide,do not reach the same size

# Tested on: P protein-expressing yeast cells and control yeast cells
# Experiment: Selenite exposure of yeast: colony size and red precipitate formation
# Format: cell-based
# Conditions: 10-50 mM selenite in agar, 30° C. for 3 days, FIG. 3B
# Description: In another experiment, P protein-expressing yeast cells and control yeast cells were exposed to various concentrations of selenite. The toxic affect of selenite in yeast is believed to be due to DNA damage. The major mode of selenite detoxification appears to be its reduction by glutathione to elementary selenium that accumulates as a red precipitate in the cell vacuole (Pinson et al. Molecular Microbiology 36:679-687(2000)).
# 10 mM, 20 mM, 30 mM, 40 mM, and 50 mM selenite solutions were prepared in 55° C. selective medium-agar and plated in duplicate into 24-well plates. Actively growing yeast cultures were diluted to A600 values of 0.001, and then 10 μl aliquots were spotted in duplicate onto the selenite-containing agar medium. Plates were incubated at 30° C. for 3 days. […]
Compound,red precipitate accumulation in P-expressing cells vs control cells,"selenite sensitivity, cells expressing a P protein versus control cells"
O=[Se](O)O [selenite],accumulate more red precipitate,no difference

# Tested on: yeast cells expressing the P protein
# Experiment: Nigericin effect on yeast cell viability, P protein-expressing cells
# Format: cell-based
# Conditions: Saccharomyces cerevisiae, data not shown
row,Compound,IC50 [µM]
1,CO[C@@H]1C[C@@H](C[C@H]2CC[C@H](C)[C@H]([C@@H](C)C(=O)O)O2)O[C@]2(O[C@](C)([C@H]3CC[C@@](C)([C@@H]4O[C@@H]([C@H]5O[C@@](O)(CO)[C@H](C)C[C@@H]5C)C[C@@H]4C)O3)C[C@H]2C)[C@@H]1C [nigericin],3

# Tested on: yeast cells not expressing the P protein
# Experiment: Nigericin effect on yeast cell viability, cells without P protein
# Format: cell-based
# Conditions: Saccharomyces cerevisiae, data not shown
row,Compound,IC50 [µM]
1,CO[C@@H]1C[C@@H](C[C@H]2CC[C@H](C)[C@H]([C@@H](C)C(=O)O)O2)O[C@]2(O[C@](C)([C@H]3CC[C@@](C)([C@@H]4O[C@@H]([C@H]5O[C@@](O)(CO)[C@H](C)C[C@@H]5C)C[C@@H]4C)O3)C[C@H]2C)[C@@H]1C [nigericin],25
